{"source": "patent US20190269801A1", "about": "(CEDARS-SINAI MEDICAL CENTER, priority 2016, published 2019)", "key": {"[1]": {"tested_on": "PC cell lines (PC3, LNCaP, C4-2, C4-2B, 22Rv1)", "assay": "Viability of immortalized prostate cancer cell lines grown as 2D monolayers", "format": "cell-based, human", "settings": "72 hours of drug exposure", "description": "(§1) Immortalized PC cell lines (PC3, LNCaP, C4-2, C4-2B, 22Rv1) and 3-D spheroid growth of mouse bone marrow-derived LNCaP and C4-2B and ex vivo expanded CTCs from patients were used. […] Induction of apoptosis was assessed by caspase 3/7 luminescent assay. Growth inhibitory effects were compared between 2-D and 3-D. Senescent luciferase-tagged LNCaP and C4-2B cells from mouse bone marrow regained growth potential when propagated in vitro as 3D spheroids. RPMI medium supplemented with 10% FBS and 1% penicillin/streptomycin was used to grow CTCs in vitro."}, "[2]": {"tested_on": "Ramos, a B-cell lymphoma, 3-D spheroids", "assay": "Cytotoxicity in Ramos B-cell lymphoma 3-D spheroids", "format": "cell-based"}, "[3]": {"tested_on": "PC cells, 3D spheroids vs 2D monolayer", "settings": "average"}, "[4]": {"tested_on": "pancreatic and breast cancer CTCs", "settings": "3-D spheroids"}, "Naive C4-2B PC cells": {"tested_on": "Naive C4-2B PC cells", "assay": "Growth inhibition of naive C4-2B PC cells cultured as 2D monolayer", "settings": "for IC50: Homo sapiens"}, "human PC cell lines": {"tested_on": "human PC cell lines", "assay": "IC50 in commonly used human PC cell lines", "format": "cell-based"}, "[5]": {"tested_on": "ovarian tumor cells OV90 and OVCA433", "settings": "in vitro"}, "PDAC tumors": {"tested_on": "PDAC tumors", "settings": "imaged 3 days after i.p. administration"}, "[6]": {"tested_on": "ex vivo propagated CTCs from human PC patients (3D spheroids)", "assay": "Cytotoxicity in ex vivo propagated prostate cancer CTCs grown as 3D spheroids"}, "[7]": {"tested_on": "Prostate circulating tumor cells CTC 864", "settings": "4 μM, 24 hours; vs control, docetaxel 1.25 μM, abiraterone acetate 3.125 μM"}, "[8]": {"tested_on": "ex vivo propagated CTCs from human PC patients (3D spheroids)"}, "PC3 tumor xenograft": {"tested_on": "PC3 tumor xenograft", "settings": "PC3 tumors in mouse; listed as dye-simvastatin"}, "[9]": {"tested_on": "renal (ACHN, o-786, SKRC, Caki-1), breast (MCF-7), lung (H358), liver (HepG2), prostate (PC3, LNCaP, C4-2B), pancreatic (MIAPaCa II) and glioblastoma (U87) …", "assay": "Cell inhibition by NIR-783 dye in a cancer cell line panel", "format": "cell-based", "settings": "in vitro"}, "[10]": {"tested_on": "RCC cell lines Caki-1, o-786, ACHN and SK-RC", "assay": "Growth and viability of RCC cell lines, 72 h exposure (crystal violet)", "format": "cell-based, human", "settings": "range over all RCC cell lines tested", "description": "(§2) 5,000 cells/well renal cancer cells and 10,000 cells/well lymphoma cells are seeded in 96 well plates in 100 microliter medium/per well for 24 h. […] Renal cancer cells are fixed with 3.7% paraformaldehyde for 15 minutes and are stained with Crystal violet solution (0.5% in 25% methanol) for 30 minutes. After rinsing with water cell layers are dried and decolorized with Sorenson citrate with shaking for 20 minutes. […] Lymphoma cell growth was evaluated using MTT and cells are incubated for 4 hours.\nApoptosis was assessed by caspase 3/7 luminescent assay. Cleavage of apoptosis substrates was determined by western blotting. […] Formalin-fixed tumor, liver and kidney sections were stained with H&E and kidney sections were scored semiquantitativey."}, "[11]": {"tested_on": "Namalwa and Raji cell lines", "assay": "Apoptosis by caspase 3/7 luminescent assay and western blot in BL cell lines", "format": "cell-based, human", "settings": "24 hours of drug exposure, 8, 16, 32 μM", "description": "Namalwa cells are cultured in RPMI 1640, 10% fetal bovine serum, 1% PenStrep, and placed in a humidified atmosphere containing 5% CO2 at 37° C. 10,000-15,000 cells/well are seeded in 96 white wall well plates in 100 microliter medium/per well for 24 h. […] 100 microliters of Caspase-Glo 3/7 assay is added and luminescence is then read. Caki-1 cells are cultured in RPMI 1640, 10% fetal bovine serum, 1% PenStrep, and placed in a humidified atmosphere containing 5% CO2 at 37° C. 5,000 cells/well are seeded in 96 white wall well plates in 100 microliter medium/per well for 24 h. […] 100 microliters of Caspase-Glo 3/7 assay is added and luminescence is then read."}, "bcl-2": {"tested_on": "bcl-2", "assay": "bcl-2 western blot in BL cell lines", "format": "cell-based, human"}, "[12]": {"tested_on": "B-cell lymphoma cell lines Namalwa, Raji, CA46, Ramos, Daudi", "assay": "Growth and viability of B-cell Burkitt's lymphoma cell lines, MTT, 72 h", "format": "cell-based, human", "settings": "72 h exposure; range over all BL cell lines tested", "description": "as §2\n(§3) Induction of apoptosis was assessed using a caspase 3/7 luminescent assay. Cleavage of apoptosis substrates and inhibition of c-myc was determined by western blotting, with images quantified by ImageJ after normalization with GAPDH. […] Formalin-fixed tumor and kidney sections were stained with hematoxylin and esosin and kidney sections scored using a semiquantitative scale designed to assess AKI-associated tubular injury (tubular epithelial cell loss, necrosis, tubular epithelial simplification, intratubular debris, and casts)."}, "Namalwa tumors": {"tested_on": "Namalwa tumors", "assay": "Namalwa xenograft growth in mice", "format": "in vivo, mouse", "settings": "equimolar doses i.p. 3 times a week"}, "c-myc": {"tested_on": "c-myc", "assay": "c-myc western blot in BL cell lines", "format": "cell-based, human"}, "mouse kidneys": {"tested_on": "mouse kidneys", "assay": "Kidney histopathology, AKI-associated tubular injury score, Namalwa-bearing mice", "settings": "i.p. 3 times a week for 4 weeks", "description": "FIG. 27 depicts in accordance with various embodiments of the invention, formalin-fixed kidney sections are stained with hematoxylin and esosin and scored using a semiquantitative scale designed to assess AKI-associated tubular injury (tubular epithelial cell loss, necrosis, tubular epithelial simplification, intratubular debris, and casts).\nas §3"}, "[13]": {"tested_on": "ex vivo expanded CTCs from PC patients and LNCaP and C4-2B cells from mouse bone marrow, 3-D spheroids", "assay": "Viability/apoptosis of PC CTCs and bone marrow-derived LNCaP and C4-2B grown as 3-D spheroids", "format": "cell-based, human", "description": "as §1"}, "microtubule": {"tested_on": "microtubule", "assay": "Microtubule dynamics in PC cells", "format": "cell-based", "description": "Microtubule dynamics are measured in NIR-SM or SM treated PC cells in the presence or absence of DT according to published protocols. Microtubule dynamics are assessed by fluorescence imaging methods, where immunolabeled tubulin is the readout for measurements of polarized forced generation, contractility and response to substrate stiffness measured in the presence of DT using established protocols. […] We test other agents, such as nocodazole and vincristine, which without being bound by theory we hypothesize block the polymerization of tubulin into microtubules, and cold temperature that can cause a rapid depolymerization of microtubules. With these controls, we determine if NIR-SM or SM may differ in enhancing the activity of DT in promoting microtubule polymerization in PC cells."}, "Resistant C4-2B PC cells": {"tested_on": "Resistant C4-2B PC cells", "assay": "Growth inhibition of AA/EZ resistant C4-2B PC cells cultured as 2D monolayer", "format": "cell-based", "settings": "Homo sapiens"}}, "note": "Where two headings read alike, the source gives them in different places.", "data": [{"molecule": "Nc1ccn([C@@H]2O[C@H](CO)[C@@H](O)C2(F)F)c(=O)n1", "note": "[gemcitabine]", "values": [{"measurement": "sensitivity of cells grown as 2D monolayers", "setting": "[1]", "value": "sensitive"}]}, {"molecule": "CCC(C)(C)C(=O)O[C@H]1C[C@@H](C)C=C2C=C[C@H](C)[C@H](CC[C@@H]3C[C@@H](OC(=O)CCCCCN4/C(=C/C=C5\\CCCC(/C=C/C6=[N+](CCCCS(=O)(=O)[O-])c7ccccc7C6(C)C)=C5Cl)C(C)(C)c5ccccc54)CC(=O)O3)[C@H]21", "note": "[NIR-SM, DZ-1-Simvastatin Conjugate]", "values": [{"measurement": "potency relative to unconjugated simvastatin", "setting": "[2]", "value": "about 5 fold"}, {"measurement": "synergized cisplatin cytotoxicity", "setting": "[2]", "value": "over 190 fold"}, {"measurement": "accumulation in PC 3D spheroids higher than in PC 2D monolayer", "setting": "[3]", "value": 5, "unit": "fold"}, {"measurement": "effectiveness relative to unconjugated simvastatin", "setting": "[4]", "value": "more effective than unconjugated simvastatin"}, {"measurement": "sensitization of the cytotoxic effects of AA and EZ", "setting": "Naive C4-2B PC cells; NIR-SM 0.25 μM, both control and AA/EZ resistant PC cells in the C4-2B background", "value": "4-5 fold"}, {"measurement": "effect on the growth of PC cells", "setting": "human PC cell lines; 0.25 μM", "value": "marginal effects"}, {"measurement": "sensitivity of cell growth relative to unconjugated drug", "setting": "[5]", "value": "more sensitive"}, {"measurement": "tumor targeting", "setting": "PDAC tumors", "value": "targets specifically PDAC tumors"}, {"measurement": "synergy with enzalutamide (Enz) and abiraterone acetate (Abi) growth inhibition", "setting": "C4-2B cells", "value": "synergizes the growth inhibitory effects of anti-androgens"}, {"measurement": "synergy with docetaxel growth inhibition", "setting": "C4-2B cells; conjugate at 2 uM", "value": "synergizes the growth inhibitory effects of docetaxel"}, {"measurement": "IC50 lower than SM", "setting": "[6]", "value": "about 4 fold"}, {"measurement": "effectiveness relative to unconjugated simvastatin", "setting": "[6]", "value": "more effective than unconjugated simvastatin"}, {"measurement": "rate of apoptosis (caspase 3/7)", "setting": "[7]", "value": "significantly higher rate of apoptosis"}, {"measurement": "IC50", "setting": "[8]", "value": 5, "unit": "µM"}, {"measurement": "enhancement of the cytotoxicity exerted by AA, EZ or DT", "setting": "[8]", "value": "21-122 fold"}, {"measurement": "accumulation in tumor", "setting": "PC3 tumor xenograft", "value": "selective accumulation"}]}, {"molecule": "CC1(C)C(=CC=C2CCCC(C=CC3=[N+](CCCCS(=O)(=O)[O-])c4ccccc4C3(C)C)=C2Cl)N(CCCCS(=O)(=O)[O-])c2ccccc21.[Na+]", "note": "[NIR-783]", "values": [{"measurement": "cell inhibition effect", "setting": "[9]", "value": "does not exhibit significant cell inhibition effect"}]}, {"molecule": "CCC(C)(C)C(=O)O[C@H]1C[C@@H](C)C=C2C=C[C@H](C)[C@H](CC[C@@H]3C[C@@H](O)CC(=O)O3)[C@H]21", "note": "[SM, Simvastatin, reference compound]", "values": [{"measurement": "IC50", "setting": "human PC cell lines; Homo sapiens, range over cell lines, dependent upon the cell types", "value": "1 to 7", "unit": "µM"}, {"measurement": "IC50", "setting": "[6]; ex vivo propagated CTCs", "value": 20, "unit": "µM"}]}, {"molecule": "N.N.[Cl][Pt][Cl]", "note": "[cisplatin, reference compound]", "values": [{"measurement": "IC50", "setting": "[10]", "value": "> 64", "unit": "µM"}, {"measurement": "induction of apoptosis (caspase 3/7; caspase 9, caspase 3 and PARP)", "setting": "[11]; listed as Cis", "value": "no sign of increased apoptotic activity"}, {"measurement": "bcl-2 expression", "setting": "bcl-2", "value": "no significant changes"}, {"measurement": "IC50", "setting": "[12]", "value": "> 64", "unit": "µM"}]}, {"molecule": "DZ-1-cisplatin [NIR dye-cisplatin]", "values": [{"measurement": "induction of apoptosis (caspase 3/7; caspase 9, caspase 3 and PARP)", "setting": "[11]", "value": "induces apoptosis"}, {"measurement": "bcl-2 expression", "setting": "bcl-2", "value": "no significant changes"}, {"measurement": "tumor growth inhibition", "setting": "Namalwa tumors", "value": "tumor growth inhibition and apoptotic nuclear lobulation/fragmentation"}, {"measurement": "c-myc expression", "setting": "c-myc", "value": "downregulates"}, {"measurement": "kidney toxicity (histopathology)", "setting": "mouse kidneys", "value": "preserved the integrity and normal morphology of mouse kidneys"}]}, {"molecule": "CC(=O)O[C@@]12CO[C@@H]1C[C@H](O)[C@@]1(C)C(=O)[C@H](O)C3=C(C)[C@@H](OC(=O)[C@H](O)[C@@H](NC(=O)OC(C)(C)C)c4ccccc4)C[C@@](O)([C@@H](OC(=O)c4ccccc4)[C@H]21)C3(C)C", "note": "[DT, docetaxel]", "values": [{"measurement": "sensitivity of cells grown as 3-D spheroids", "setting": "[13]", "value": "resistance with no signs of apoptosis"}, {"measurement": "sensitivity of cells grown as 2D monolayers", "setting": "[1]", "value": "sensitive"}, {"measurement": "effect on microtubules", "setting": "microtubule", "value": "enhances microtubule polarization and inhibits shrinkage of microtubule length"}]}, {"molecule": "CC(=O)O[C@H]1CC[C@@]2(C)C(=CC[C@@H]3[C@@H]2CC[C@]2(C)C(c4cccnc4)=CC[C@@H]32)C1", "note": "[AA, abiraterone acetate]", "values": [{"measurement": "sensitivity of cells grown as 3-D spheroids", "setting": "[13]", "value": "resistance with no signs of apoptosis"}, {"measurement": "sensitivity of cells grown as 2D monolayers", "setting": "[1]", "value": "sensitive"}, {"measurement": "IC50", "setting": "Naive C4-2B PC cells; read-out: AA IC50, Naive C4-2B, 2D monolayer, NIR-SM 0 μM", "value": 6.79, "unit": "µM"}, {"measurement": "IC50", "setting": "Naive C4-2B PC cells; read-out: AA IC50, Naive C4-2B, 2D monolayer, NIR-SM 0.25 μM", "value": 1.65, "unit": "µM"}, {"measurement": "IC50", "setting": "Resistant C4-2B PC cells; NIR-SM 0 μM", "value": 13.3, "unit": "µM"}, {"measurement": "IC50", "setting": "Resistant C4-2B PC cells; NIR-SM 0.25 μM", "value": 3.32, "unit": "µM"}]}, {"molecule": "CNC(=O)c1ccc(N2C(=S)N(c3ccc(C#N)c(C(F)(F)F)c3)C(=O)C2(C)C)cc1F", "note": "[EZ, enzalutamide]", "values": [{"measurement": "sensitivity of cells grown as 3-D spheroids", "setting": "[13]", "value": "resistance with no signs of apoptosis"}, {"measurement": "sensitivity of cells grown as 2D monolayers", "setting": "[1]", "value": "sensitive"}]}]}
